Measured values reported in patent US4278658A, “Deodorant composition” (priority 1978, dated 1981).

Key:
[1] = biological target: T1, lipoxidase (ECl.12.1.13) (Glycine max, UniProt P08170); assay: Lipoxidase test: inhibition of oxidation of linoleic acid by lipoxidase; format: biochemical; set-up: inhibition: concentration or dose not given beside the values; details: for inhibition / inhibition at 0.5 % strength: read-out: LIC (lipoxidase inhibiting capacity)
T1 sequence (P08170 1-839): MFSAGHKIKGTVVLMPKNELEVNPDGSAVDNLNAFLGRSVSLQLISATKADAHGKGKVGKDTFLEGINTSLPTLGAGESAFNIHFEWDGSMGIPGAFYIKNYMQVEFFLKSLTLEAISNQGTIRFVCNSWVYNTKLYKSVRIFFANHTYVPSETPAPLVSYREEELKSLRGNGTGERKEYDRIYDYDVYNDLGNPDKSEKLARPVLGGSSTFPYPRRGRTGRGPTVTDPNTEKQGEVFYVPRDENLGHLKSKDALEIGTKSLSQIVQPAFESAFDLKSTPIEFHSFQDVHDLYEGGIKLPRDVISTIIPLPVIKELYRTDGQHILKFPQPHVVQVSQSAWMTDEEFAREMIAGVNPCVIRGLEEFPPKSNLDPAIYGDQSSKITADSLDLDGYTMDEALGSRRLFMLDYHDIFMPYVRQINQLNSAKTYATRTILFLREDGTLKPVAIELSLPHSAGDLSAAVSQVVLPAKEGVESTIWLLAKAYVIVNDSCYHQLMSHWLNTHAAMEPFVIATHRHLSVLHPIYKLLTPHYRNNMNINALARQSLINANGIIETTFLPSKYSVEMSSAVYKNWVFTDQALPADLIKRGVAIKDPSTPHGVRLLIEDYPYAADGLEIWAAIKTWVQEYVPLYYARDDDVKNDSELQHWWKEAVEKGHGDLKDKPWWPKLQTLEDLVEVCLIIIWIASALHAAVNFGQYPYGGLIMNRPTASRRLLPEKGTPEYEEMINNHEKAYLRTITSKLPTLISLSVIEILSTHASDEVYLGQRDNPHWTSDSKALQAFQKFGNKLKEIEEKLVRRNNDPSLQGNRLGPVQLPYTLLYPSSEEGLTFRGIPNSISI

[2] = Morpholine test: depression of the partial vapour pressure of morpholine beyond Raoult's Law; details: morpholine 0.25 g + material 1 g, 37° C., 30 minutes, headspace GC
[3] = % inhibition = 100 (S1-S2)/S1, 0.5% by weight solution of material in ethanol in test substrate, borate buffer pH 9.0, 234 nm

Compound	inhibition ([1]; pH 9) [%]	RVR (Raoult variance ratio) [2]	inhibition at 0.5 % strength ([1]; pH 9) [%]	LIC (lipoxidase inhibiting capacity) ([1]; pH 9) [%]	LIC (lipoxidase inhibiting capacity) [1, 3] [%]
CCCCCCC(CCOC(C)=O)OC(C)=O (stereo not drawn) [Nonanediol-1,3-diacetate]	33	1.17			
CCC(C)(C)C1CCC(=O)CC1 [p-t-Amyl cyclohexanone]	50	1.10			
OCCc1ccccc1 [Phenylethyl alcohol]	22	1.24			
CC(=O)OC1CCC(C(C)(C)C)CC1 (stereo not drawn) [p-t-Butylcyclohexyl acetate]	54	0.98			
CCCCCC1CCC(=O)O1 (stereo not drawn) [Nonanolide-1:4]	92	0.87			
CCOc1cc(C=O)ccc1O [Ethyl vanillin]		1.43	100		
CC(=O)c1ccc2ccccc2c1 [β-Methyl naphthyl ketone]		0.96	100		
i-Nonyl formate		1.49		19	
Cc1ccc(C(C)C)cc1O [Carvacrol]		1.43	32		
CC(C)CCOC(=O)c1ccccc1O [iso-Amyl salicylate]	95	1.24			
O=c1ccc2ccccc2o1 [Coumarin]	58	1.22			
CC(=O)OC1CCCCC1C(C)(C)C (stereo not drawn) [o-t-Butylcyclohexyl acetate]	52	1.08			
CCCCCCCC1CCCC1=O (stereo not drawn) [2-n-Heptylcyclopentanone]	56	1.05			
Tetrahydromuguol		1.23		24	
CCOC(=O)c1ccccc1C(=O)OCC [Diethyl phthalate]		1.20	79		
C/C=C\c1ccc(O)c(OC)c1 [iso-Eugenol]		1.48	100		
CC1COCc2cc3c(cc21)C(C)(C)C(C)C3(C)C (stereo not drawn) [1,3,4,6,7,8-Hexahydro-4,6,6,7,8,8-hexamethyl cyclopenta-α-2-benzopyran]	100				
Dimyrcetol		1.22			16
i-Nonyl acetate		0.83			50
CC1(C)CCCC2(C)C1CCC1(C)OCCC12 (stereo not drawn) [3a-Methyl-dodecahydro-6,6,9a-trimethylnaphtho(2,1-b)furan]	58	1.30			
O=C(OCc1ccccc1)c1ccccc1O [Benzyl salicylate]		1.58	0		
CC(C=O)Cc1ccc(C(C)(C)C)cc1 (stereo not drawn) [p-t-Butyl-α-methyl hydrocinnamic aldehyde]	74				
